According to ChEMBL document CHEMBL4382280, “Inhibitors of G12C Mutant Ras Proteins for the Treatment of Cancers” (ACS Med Chem Lett, 2019):

Biological target: GTPase KRas (Homo sapiens, UniProt P01116, G12C)
Test: Inhibition of GDP loaded biotin-labeled KRAS G12C mutant (unknown origin) assessed as reduction in guanine nucleotide exchange preincubated for 4 hrs followed by GST-RAF-RBD addition in presence of GTPgammaS by FRET assay

Chain of GTPase KRas (P01116 whole entry G12C): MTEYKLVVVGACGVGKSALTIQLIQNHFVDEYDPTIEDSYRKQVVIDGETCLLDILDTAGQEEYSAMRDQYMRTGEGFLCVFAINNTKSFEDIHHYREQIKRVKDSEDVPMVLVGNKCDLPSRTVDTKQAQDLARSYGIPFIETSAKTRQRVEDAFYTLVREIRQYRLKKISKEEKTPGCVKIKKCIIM

Row | IC50 [nM] | Compound
1 | 123 | C=CC(=O)N1CCN2c3ncnc4cc(-c5c(C)ccc6[nH]ncc56)c(Cl)c(c34)OC[C@@H]2C1 (stereo in doubt; form 1)
2 | 12 | C=CC(=O)N1CCN2c3ncnc4cc(-c5c(C)ccc6[nH]ncc56)c(Cl)c(c34)OC[C@@H]2C1 (stereo in doubt; form 3)
